Test: PK in rats after PO dosing of the prodrug of Example 1: circulating parent Compound I and prodrug
Type: in vivo
Settings: for AUC / Cmax / Tmax: rat, in vivo, analyte = labelled substance
[1] = 5 mg/kg, Example 1 dosed PO at 5 mpk
[2] = 25 mg/kg, Example 1 dosed PO at 25 mpk
[3] = 150 mg/kg, Example 1 dosed PO at 150 mpk

SMILES	AUC Multiple+ (Example 1 dosed PO at 5 mpk)	AUC Multiple+ (Example 1 dosed PO at 25 mpk)	AUC Multiple+ (Example 1 dosed PO at 150 mpk)	AUC [1]	Cmax [1]	Tmax [1]	AUC [2]	Cmax [2]	Tmax [2]	AUC [3]	Cmax [3]	Tmax [3]	circulating prodrug as % of parent (PO, 150 mpk dose)	exposure to the prodrug (circulating prodrug following administration) (PO, therapeutic doses (5 and 25 mpk))
[2H]C([2H])([2H])NC(=O)c1cnc(NC(=O)C2CC2)cc1Nc1cccc(-c2nnn(C)n2)c1OC [Compound I]	11X	57X	473X	19.2 ± 1.7 µM·h	4.91 ± 1.4 µM	0.5 h	96.9 ± 13.2 µM·h	13 ± 1.4 µM	3 h	804 ± 26.9 µM·h	58.2 ± 5.7 µM	3 h		
[2H]C([2H])([2H])NC(=O)c1cn(COP(=O)([O-])[O-])/c(=N/C(=O)C2CC2)cc1Nc1cccc(-c2nnn(C)n2)c1OC.[Na+].[Na+] [Example 1]										0.33 ± 0.21 µM·h	0.69 ± 0.24 µM	0.25 h	less than 0.05%	no exposure
